Results published in US20070264646A1, “Hbv Particles Containing Hbv-Rna” (Advanced Life Science Institute, Inc., priority 2003, published 2007).

Tests used:
[1] = test system: HBc antigen; assay: Measurement of the amount of HBc antigen (sandwich immunoassay, luminescence); assay type: in vivo, HBV patient; details: serum, before administration 610
Description: Three monoclonal antibodies HB44 (recognition site: amino acids 31-49), HB61 (recognition site: amino acids 131-140) and HB114 (recognition site: amino acids 1-81) that react both HBc antigen and HBe antigen were coated and immobilized to a microtiter plate. After washing with PBS, it was blocked with a solution containing casein and, after removing the solution, it was dried.
Fifty μl of the pretreatment solution (15% sodium dodecyl sulfate [SDS], 3% CHAPS, 1% hexadecyltrimethyl ammonium bromide) was mixed with 100 μl of the sample (serum, plasma etc.) and treated at 70° C. for 30 minutes.
To each antibody-immobilized well, 100 μl of the reaction buffer (pH 8.0) and 50 μl of the pretreated sample were added, and the plate was reacted under gentle stirring at room temperature for 2 hours.
After washing the wells, 100 μl of a solution containing alkaline phosphatase-labelled HB50 (recognition site: amino acids 168-176) monoclonal antibody was added to each well, and the plate was incubated at room temperature for 1 hour.
After washing the wells, 100 μl of the CDP Star with Emerald II (Applied Biosystems) was added, and the intensity of luminescence after reacting at room temperature for 20 minutes was measured using a microtiter plate luminometer. It was compared to the intensity of luminescence of the standard antigen and the concentration of HBc antigen in the sample was calculated (Table 1).

[2] = test system: HBV gene (HBV-DNA and RNA) in the serum; assay: Quantification of the HBV gene (DNA+RNA) in the serum by reverse transcription plus TaqMan PCR; assay type: in vivo, HBV patient; details: one month before administration 7.8 × 10^6
Method: (§1) In order to isolate the HBV gene in Dane particles (the infective HBV particle: the complete HBV particle), the HBV gene in a serum from a HBV patient was purified using High Pure Viral Nucleic Acid kit (Roche Diagnostics) in the following method. One hundred μl of the serum from a HBV patient who received lamivudine treatment was mixed with 100 μl of the serum from a normal healthy subject to prepare 200 μl of a serum sample. To the serum sample, 200 μl of a working solution {50 μl of poly(A) carrier RNA (4 mg/ml) and 2.5 ml of the binding buffer [6 M guanidine-HCl, 10 mM urea, 10 mM Tris-HCl (pH 4.4), 20% Triton X-100 (v/v)]} and 50 μl of Proteinase K (18 mg/ml) were added and mixed, and incubated at 72° C. for 10 minutes.
(§2) One hundred μl of isopropanol and the sample were mixed, and the mixture was transferred into a High Pure filter tube. It was centrifuged at 8000 rpm for 1 minute, and after discarding the flowthrough, 500 μl of the inhibitor removal buffer [5 M guanidine-HCl, 20 mM Tris-HCl (pH 6.6)] was injected and then centrifuged at 8000 rpm for 1 minute. After adding 450 μl of the washing buffer [20 mM NaCl, 2 mM Tris-HCl (pH 7.5)], it was centrifuged at 8000 rpm for 1 minute. Then it was washed again in 450 μl of the washing buffer and was centrifuged at 13000 rpm for 10 seconds. Fifty μl of sterile water was added to the filter tube, which was centrifuged at 8000 rpm for 1 minute, and the flowthrough was collected to prepare a solution of the HBV gene in the serum.
In order to measure the amount of HBV gene in the serum, the step of the reverse transcriptase reaction was added. To 10 μl of the HBV gene solution, 1 μl of 20 mM dNTP Mix (10 mM dATP, 10 mM dGTP, 10 mM dCTP, 10 mM dTTP) and 0.2 μl of 10 μM HBS-R primer were mixed, and after incubated at 65° C. for 5 minutes, it was quickly cooled on ice. […]
By applying 4 μl of this reaction mixture to the above HBV-DNA quantification system, the amount of the HBV gene in the serum, i.e. the total amount of HBV-DNA and RNA in the serum, can be measured. […]

[3] = test system: HBV-DNA in the serum; assay: Quantification of HBV-DNA in the serum by TaqMan PCR, patient under lamivudine treatment; assay type: in vivo; details: one month before administration 2.4 × 10^6
Method: as §1, §2
The quantification of HBV-DNA in the serum was performed by the TaqMan PCR method that employs the Light Cycler (Roche Diagnostics). […]
The condition included pretreatment at 95° C. for 10 minutes, DNA denaturation at 95° C. for 5 seconds, annealing at 60° C. for 15 seconds and DNA synthesis at 72° C. for 8 seconds, and fluorescence emitted from the TaqMan probe was measured to quantify the amount of HBV-DNA in the serum (Table 1).

[4] = test system: HBV-RNA in the serum; assay: Amount of HBV-RNA in the serum, estimated by subtracting HBV-DNA from HBV gene; assay type: in vivo, HBV patient; details: one month before administration 5.4 × 10^6
Method: In order to measure the amount of HBV gene in the serum, the step of the reverse transcriptase reaction was added. To 10 μl of the HBV gene solution, 1 μl of 20 mM dNTP Mix (10 mM dATP, 10 mM dGTP, 10 mM dCTP, 10 mM dTTP) and 0.2 μl of 10 μM HBS-R primer were mixed, and after incubated at 65° C. for 5 minutes, it was quickly cooled on ice. Four μl of 5× reverse transcription buffer [250 mM Tris-HCl (pH 8.3), 375 mM KCl, 15 mM MgCl2], 0.2 μl of 0.1 M DTT, 0.6 μl of RNase inhibitor (40 units/μl) and 3 μl of sterile water were mixed and then subjected to an annealing reaction at 42° C. for 2 minutes, to which 1 μl of the reverse transcriptase (200 units/μl) was added to prepare a 20 μl of a reaction mixture, which was subjected to a reverse transcription reaction at 42° C. for 50 minutes and the inactivation of the reverse transcriptase was performed at 70° C. for 15 minutes.
By applying 4 μl of this reaction mixture to the above HBV-DNA quantification system, the amount of the HBV gene in the serum, i.e. the total amount of HBV-DNA and RNA in the serum, can be measured. Also, by subtracting the amount of HBV-DNA from the amount of the HBV gene, the amount of HBV-RNA in the serum can be estimated (Table 1).

For `Nc1ccn([C@@H]2CS[C@H](CO)O2)c(=O)n1` [lamivudine], the “Amount of HBc antigen” value ([1]; 8 months after administration) was 21 pg/mL, the “Amount of HBc antigen” value ([1]; 19 months after administration) was 20 pg/mL and the “Amount of HBc antigen” value ([1]; one month after administration) was 56 pg/mL. For the same molecule, the “Amount of HBV gene” value ([2]; 8 months after administration) was 7.2 × 10^3 copies/ml, the “Amount of HBV gene” value ([2]; 19 months after administration) was 2.2 × 10^3 copies/ml and the “Amount of HBV gene” value ([2]; one month after administration) was 1.1 × 10^5 copies/ml. For the same molecule, the “Amount of HBV-DNA” value ([3]; 8 months after administration) was 1.0 × 10^2 copies/ml, the “Amount of HBV-DNA” value ([3]; 19 months after administration) was 0 copies/ml and the “Amount of HBV-DNA” value ([3]; one month after administration of lamivudine) was 6.1×10^3 copies/ml. The “Amount of HBV-RNA” value ([4]; 8 months after administration) was 7.1 × 10^3 copies/ml, the “Amount of HBV-RNA” value ([4]; 19 months after administration) was 2.2 × 10^3 copies/ml and the “Amount of HBV-RNA” value ([4]; one month after administration) was 1.0×10^5 copies/ml.
